Experimental data published in patent US11813277B2, “Methods and agents for modulating inflammation” (The Regents of the University of California, priority 2018, dated 2023).
Entries after “also recorded” stand apart in the source; their conditions may differ.

Columns and labels:
[1] = test system: BMDMs; test: Intracellular free coenzyme A levels in BMDMs; format: cell-based, mouse; details: 200 μM etomoxir, IL-4, 20 hr
Procedure: On Day 6 of differentiation, BMDMs were seeded at 1.2×10^6 cells/well in 6-well plates. 24 hr later, BMDMs were mock-treated or co-treated with 20 ng/mL IL-4±200 μM etomoxir±500 μM CoA in DMEM supplemented with 5% FBS, 2 mM L-glutamine, 100 units/mL, […] penicillin/streptomycin, 500 μM of sodium pyruvate and 5% v/v conditioned media containing macrophage colony stimulating factor (M-CSF) for 20 hr. Prior to sample collections, cells were washed with 600 μL of 0.9% (w/v) NaCl twice. Three wells per replicate per treatment were combined in 2 mL centrifuge tubes and centrifuged at 500 g for 5 mins at 4° C. The supernatant was removed, and the cell pellet was re-suspended in 75 μL of ice-cold 0.7% (v/v) perchloric acid for 5 min. Samples were then centrifuged at 10,000 g for 7 mins at 4° C. and the resulting supernatant was adjusted to pH 7 with 2M NaOH and 500 mM K2HPO4. The coenzyme A concentration was determined with Coenzyme A Assay Kit following manufacturer's instructions (Sigma MAK034) using 40 μL of sample supernatant. Coenzyme A levels were normalized to total cellular protein (BCA method).

[2] = test system: Relma, Mgl2, Ym1, Fabp4, Arg1 expression; test: qPCR of IL-4-associated genes in BMDMs; format: cell-based, mouse
Procedure: For all gene expression and flow cytometry experiments described below, day 6 BMDM were plated at 3×10^5 cell/well in 12-well plates. The next day, cells were treated with appropriate compounds (and duration as indicated in figures and below) in DMEM supplemented with 5% FBS, 2 mM L-glutamine, 100 units/mL, 100 μg/mL penicillin/streptomycin, 500 μM of sodium pyruvate and 5% v/v conditioned media containing macrophage colony stimulating factor (M-CSF).
For flow cytometry experiments involving etomoxir (FIG. 1G, FIG. 2A, FIG. 2D, FIG. 3A, FIG. 3B, FIG. 3G, FIG. 3H): BMDMs were mock-treated (media replacement only) or treated with 20 ng/mL of IL-4±3 μM or 200 μM of etomoxir for 48 hr. When measuring expression of M(IL-4)-associated genes in response to etomoxir (FIG. 1H, FIG. 2B), BMDMs were mock-treated or treated with 20 ng/mL of IL4±etomoxir as indicated for 24 hr.
For experiments involving respiratory chain inhibitors: BMDMs were mock-treated (media replacement only) or treated with 20 ng/mL of IL4±1.2 μM oligomycin (Oligo), 200 nM rotenone (Rot), 200 nM antimycin A (AntiA), 100 nM piericidin A (PierA), or 5 μM carboxyatractylate (CAT) for either 24 (FIG. 4G, FIG. 4H, FIG. 6G) or 48 hr (FIG. 4F, FIG. 7D). All inhibitors were given as co-treatments simultaneously with IL-4.
RNA was isolated with TRIzol, then cDNA was synthesized with high-capacity cDNA reverse transcription kit. KAPA SYBR FAST qPCR Master Mix kit and a LightCycler 480 were used for quantitative RT-PCR. Fold change related to the control group was calculated using […] with 36b4 as the reference gene.

[3] = test system: 3T3-L1 adipocytes; test: Maximal respiration in 3T3-L1 adipocytes (positive control); format: cell-based; details: 3 μM etomoxir
Procedure: All respirometry studies were conducted in either a Seahorse XF96 or XFe96 Analyzer. All experiments were conducted at 37° C., and at pH 7.4 (intact cells) or 7.2 (permeabilized cells and isolated mitochondria). Calculation of respiratory parameters was made according to standard protocols (Divakaruni, A. S., Paradyse, A., Ferrick, D. A., Murphy, A. N., and Jastroch, M. (2014a) Analysis and interpretation of microplate-based oxygen consumption and pH data. Meth. Enzym 547, 509-54), and all rates were corrected for non-mitochondrial respiration/background signal by subtracting the oxygen consumption rate insensitive to rotenone plus antimycin A.
Detailed description of FIG. 5. (FIG. 5A) Maximal FCCP-stimulated respiration in response to 3 μM etomoxir in six cell types (experimental conditions in Materials and Methods). […] (n≥3 independent biological replicates). (FIG. 5B) (Left) Maximal respiration in HepG2 cells offered 8 mM glucose, 2 mM glutamine, and 2 mM pyruvate in the experimental medium with BPTES and UK5099 (both at 3 μM)±3 μM etomoxir. (n=4 independent biological replicates). (Right) Maximal respiration in 3T3-L1 adipocytes offered 1 mM glucose and 0.5 mM carnitine in the experimental medium with increasing concentrations of etomoxir. (n=3 independent biological replicates). […]

## CCOC(=O)[C@@]1(CCCCCCOc2ccc(Cl)cc2)CO1 [etomoxir]
[1]
  intracellular free CoA levels: significantly dropped
[2]; 3 μM etomoxir, IL-4, 24 hr
  gene expression of Relma, Mgl2, Ym1, Fabp4, Arg1: no change
[2]; 200 μM etomoxir, IL-4, 24 hr
  Fabp4 and Arg1 expression: no change
  Relma, Mgl2, Ym1 expression: blocked the induction; also recorded: significantly decreased
[2]; etomoxir, IL-4
  Fabp4 expression: unresponsive
[3]
  respiration: sufficient to inhibit respiration
